pKi: −log10 of the molar value.
Target: CDK2 (human) (UniProt P24941)
Experiment: Enzyme Assay

Row | Compound | pKi
1 | CCNCc1cncc(-c2ccc3[nH]nc(-c4ncc(C(=O)N[C@@H]5CCc6ccccc65)[nH]4)c3c2)c1C | > 7.30
2 | CCNCc1cncc(-c2ccc3[nH]nc(-c4nc(CC)c(CC)[nH]4)c3c2)c1C | > 7.30
3 | CCNCc1cncc(-c2ccc3[nH]nc(-c4ncc[nH]4)c3c2)c1C | > 7.30
4 | CCNCc1cncc(-c2ccc3[nH]nc(-c4ncc(C(=O)N5CCN(c6ccc(F)cc6F)CC5)[nH]4)c3c2)c1C | > 7.30
5 | CCNCc1cncc(-c2ccc3[nH]nc(-c4nc(-c5ccc(OC)cc5)c[nH]4)c3c2)c1C | > 7.30
6 | CCNCc1cncc(-c2ccc3[nH]nc(-c4ncc(C(=O)N5CCN(Cc6ccccn6)CC5)[nH]4)c3c2)c1C | > 7.30
7 | CCNCc1cncc(-c2ccc3[nH]nc(-c4nc(-c5ccccc5)c(C(=O)NCc5ccccc5)[nH]4)c3c2)c1C | > 7.30
8 | CCCc1nc(-c2n[nH]c3ccc(-c4cncc(CNCC)c4C)cc23)[nH]c1C | > 7.30
9 | CC(C)(C)O.Cc1c(N)cncc1-c1ccc2[nH]nc(-c3nc(-c4ccc(F)cc4)c[nH]3)c2c1 | > 7.30
10 | CCNCc1cncc(-c2ccc3[nH]nc(-c4nc(C(=O)NCc5cccnc5)c[nH]4)c3c2)c1C | > 7.30
11 | Cc1c(CNC(C)C)cncc1-c1ccc2[nH]nc(-c3ncc[nH]3)c2c1 | > 7.30
12 | CCNCc1cncc(-c2ccc3[nH]nc(-c4ncc(C(=O)N5CC=C(c6ccccc6)CC5)[nH]4)c3c2)c1C | > 7.30
13 | CNCc1cncc(-c2ccc3[nH]nc(-c4ncc[nH]4)c3c2)c1C | > 7.30
14 | CCNCc1cncc(-c2ccc3[nH]nc(-c4nc(-c5ccccc5)c(C)[nH]4)c3c2)c1C | > 7.30
15 | CCNCc1cncc(-c2ccc3[nH]nc(-c4ncc(C(=O)N(CCN(C)C)Cc5ccccc5)[nH]4)c3c2)c1C | > 7.30
16 | CCNCc1cncc(-c2ccc3[nH]nc(-c4ncc(C(=O)N5CCN(C)CC5)[nH]4)c3c2)c1C | > 7.30
17 | CCNCc1cncc(-c2ccc3[nH]nc(-c4ncc(C(=O)N5CCCCCC5)[nH]4)c3c2)c1C | > 7.30
18 | CCc1nc(-c2n[nH]c3ccc(-c4cncc(N)c4C)cc23)[nH]c1CC | > 7.30
19 | CCNCc1cncc(-c2ccc3[nH]nc(-c4nc(-c5ccc(Cl)cc5)c(C)[nH]4)c3c2)c1C | > 7.30
20 | CCNCc1cncc(-c2ccc3[nH]nc(-c4ncc(C(=O)NCC)[nH]4)c3c2)c1C | > 7.30
21 | CCNCc1cncc(-c2ccc3[nH]nc(-c4nc(-c5ccccc5)c[nH]4)c3c2)c1C | > 7.30
22 | CCNCc1cncc(-c2ccc3[nH]nc(-c4nc(-c5cccc(OC)c5)c[nH]4)c3c2)c1C | > 7.30
23 | CCNCc1cncc(-c2ccc3[nH]nc(-c4ncc(C(=O)NCc5ccccn5)[nH]4)c3c2)c1C | > 7.30

Row | Compound | pKi
24 | CCNCc1cncc(-c2ccc3[nH]nc(-c4nc5c([nH]4)CCCC5)c3c2)c1CC | > 7.30
25 | CCNCc1cncc(-c2ccc3[nH]nc(-c4ncc(C(=O)NC(C)C)[nH]4)c3c2)c1C | > 7.30
26 | CCNCc1cncc(-c2ccc3[nH]nc(-c4cc(C)n[nH]4)c3c2)c1C | > 7.30
27 | CCNCc1cncc(-c2ccc3[nH]nc(-c4nc(CC(C)C)c(C)[nH]4)c3c2)c1C | > 7.30
28 | CCNCc1cncc(-c2ccc3[nH]nc(-c4ncc(C(=O)N5CCCC5)[nH]4)c3c2)c1C | > 7.30
29 | Cc1c(N)cncc1-c1ccc2[nH]nc(-c3nc(-c4cccc(F)c4)c[nH]3)c2c1 | > 7.30
30 | c1c[nH]c(-c2n[nH]c3ccc(-c4cncc5[nH]ccc45)cc23)n1 | > 7.30
31 | CCNCc1cncc(-c2ccc3[nH]nc(-c4ncc(C(=O)NCCOC)[nH]4)c3c2)c1C | > 7.30
32 | CCNCc1cncc(-c2ccc3[nH]nc(-c4ncc[nH]4)c3c2)c1CC | > 7.30
33 | C[S+](C)[O-].Cc1c(N)cncc1-c1ccc2[nH]nc(-c3nc(-c4ccccc4)c[nH]3)c2c1 | > 7.30
34 | CCNCc1cncc(-c2ccc3[nH]nc(-c4ncc(C(=O)N5CCC(Cc6ncccn6)CC5)[nH]4)c3c2)c1C | > 7.30
35 | CCNCc1cncc(-c2ccc3[nH]nc(-c4ncc(C(=O)N5CCC6CCCCC6C5)[nH]4)c3c2)c1C (stereo not drawn) | > 7.30
36 | CCNCc1cncc(-c2ccc3[nH]nc(-c4ncc(C(=O)N5CCCC(Cc6ncccn6)CC5)[nH]4)c3c2)c1C (stereo not drawn) | > 7.30
37 | CCNCc1cncc(-c2ccc3[nH]nc(-c4ncc(C(=O)N5CCCCC5)[nH]4)c3c2)c1C | > 7.30
38 | CCCCCC.CCNCc1cncc(-c2ccc3[nH]nc(-c4nc(CC)c(C)[nH]4)c3c2)c1C | > 7.30
39 | Cc1c(N)cncc1-c1ccc2[nH]nc(-c3nc4c([nH]3)CCCC4)c2c1 | > 7.30
40 | CCNCc1cncc(-c2ccc3[nH]nc(-c4ncc(C(=O)N[C@H]5CCc6ccccc65)[nH]4)c3c2)c1C | > 7.30
41 | CCNCc1cncc(-c2ccc3[nH]nc(-c4ncc(C(=O)N[C@H]5CCCCNC5=O)[nH]4)c3c2)c1C | > 7.30
42 | CCNCc1cncc(-c2ccc3[nH]nc(-c4ncc(C(=O)N5CCC(Oc6ccccc6)CC5)[nH]4)c3c2)c1C | > 7.30
43 | C1CCCCC1.COCc1cncc(-c2ccc3[nH]nc(-c4nc5c([nH]4)CCCC5)c3c2)c1C | > 7.30
44 | CCNCc1cncc(-c2ccc3[nH]nc(-c4ncc(C(=O)N5CCN(CCOC)CC5)[nH]4)c3c2)c1C | > 7.30
45 | CCNCc1cncc(-c2ccc3[nH]nc(-c4nc5c([nH]4)CCCC5)c3c2)c1C | > 7.30
46 | CNCc1cncc(-c2ccc3[nH]nc(-c4nc(C)c[nH]4)c3c2)c1C | > 7.30

Row | Compound | pKi
47 | CCNCc1cncc(-c2ccc3[nH]nc(-c4ncc(C(=O)N5CCN(Cc6ccccc6)CC5)[nH]4)c3c2)c1C | > 7.30
48 | CCNCc1cncc(-c2ccc3[nH]nc(-c4nc(-c5cccc(F)c5)c[nH]4)c3c2)c1C | > 7.30
49 | CCNCc1cncc(-c2ccc3[nH]nc(-c4ncc(C(=O)NC5C6CC7CC(C6)CC5C7)[nH]4)c3c2)c1C (stereo not drawn) | > 7.30
50 | CCNCc1cncc(-c2ccc3[nH]nc(-c4nc(C)c[nH]4)c3c2)c1C | > 7.30
51 | CCNCc1cncc(-c2ccc3[nH]nc(-c4nc(C(=O)NC5CCCCC5)c[nH]4)c3c2)c1C | > 7.30
52 | CCNCc1cncc(-c2ccc3[nH]nc(-c4cnc[nH]4)c3c2)c1C | > 7.30
53 | CCNCc1cncc(-c2ccc3[nH]nc(-c4ncc(C(=O)N5CCN(c6ccccc6)CC5)[nH]4)c3c2)c1C | > 7.30
54 | CCNCc1cncc(-c2ccc3[nH]nc(-c4nc(-c5ccc(F)cc5)c[nH]4)c3c2)c1C | > 7.30
55 | c1ncc(-c2n[nH]c3ccc(-c4cncc5[nH]ccc45)cc23)[nH]1 | > 7.30
56 | CCNCc1cncc(-c2ccc3[nH]nc(-c4nc(-c5cccc(C(F)(F)F)c5)c(C)[nH]4)c3c2)c1C | > 7.30
57 | CCNCc1cncc(-c2ccc3[nH]nc(-c4nc(-c5cc(Cl)cc(Cl)c5)c(C)[nH]4)c3c2)c1C | > 7.30
58 | CCNCc1cncc(-c2ccc3[nH]nc(-c4ncc(C(=O)NC5CCCC5)[nH]4)c3c2)c1C | > 7.30
59 | CCNCc1cncc(-c2ccc3[nH]nc(-c4nc(-c5ccc(C(F)(F)F)cc5)c(C)[nH]4)c3c2)c1C | > 7.30
60 | CCNCc1cncc(-c2ccc3[nH]nc(-c4ncc(C(=O)N(CC)CC)[nH]4)c3c2)c1C | > 7.30
61 | CCNCc1cncc(-c2ccc3[nH]nc(-c4ncc(C(=O)N5CCOCC5)[nH]4)c3c2)c1C | > 7.30
62 | CCNCc1cncc(-c2ccc3[nH]nc(-c4ncc(C(=O)NCCN(C)C)[nH]4)c3c2)c1C | > 7.30
63 | CCCCCC.CCNCc1cncc(-c2ccc3[nH]nc(-c4nc(C)c(C)[nH]4)c3c2)c1C | > 7.30
64 | CCNCc1cncc(-c2ccc3[nH]nc(-c4ncc(C(=O)NCCC5=CCCCC5)[nH]4)c3c2)c1C | > 7.30
65 | CCNCc1cncc(-c2ccc3[nH]nc(-c4nc(-c5ccc(OC)c(OC)c5)c[nH]4)c3c2)c1C | > 7.30
66 | CCNCc1cncc(-c2ccc3[nH]nc(-c4ncc(C(=O)N5C[C@@H](C)O[C@@H](C)C5)[nH]4)c3c2)c1C | > 7.30
67 | CCNCc1cncc(-c2ccc3[nH]nc(-c4ncc(C(=O)N(C)C5CCN(Cc6ccccc6)C5)[nH]4)c3c2)c1C (stereo not drawn) | > 7.30
68 | CCNCc1cncc(-c2ccc3[nH]nc(-c4ncc(C(=O)N5Cc6ccccc6C5)[nH]4)c3c2)c1C | > 7.30

From the Kinase Knowledgebase extract (Sharma et al. 2016)
